According to ChEMBL document CHEMBL4376850, “1-Benzylpyrrolidine-3-amine-based BuChE inhibitors with anti-aggregating, antioxidant and metal-chelating properties as multifunctional agents against Alzheimer's disease” (Eur J Med Chem, 2020):
Activity calls are given as the source filed them. The calls are words filed in the database; no cut-off is given here.

Assays:
[1] = biological target: Acetylcholinesterase (Electrophorus electricus) (UniProt O42275); test: Inhibition of Electrophorus electricus AChE at 10 uM using acetylthiocholine iodide as substrate preincubated for 5 mins followed by substrate addition and measured after 5 mins by Ellman's method relative to control
Sequence of Acetylcholinesterase (Electrophorus electricus) (O42275 24-633 limits assumed): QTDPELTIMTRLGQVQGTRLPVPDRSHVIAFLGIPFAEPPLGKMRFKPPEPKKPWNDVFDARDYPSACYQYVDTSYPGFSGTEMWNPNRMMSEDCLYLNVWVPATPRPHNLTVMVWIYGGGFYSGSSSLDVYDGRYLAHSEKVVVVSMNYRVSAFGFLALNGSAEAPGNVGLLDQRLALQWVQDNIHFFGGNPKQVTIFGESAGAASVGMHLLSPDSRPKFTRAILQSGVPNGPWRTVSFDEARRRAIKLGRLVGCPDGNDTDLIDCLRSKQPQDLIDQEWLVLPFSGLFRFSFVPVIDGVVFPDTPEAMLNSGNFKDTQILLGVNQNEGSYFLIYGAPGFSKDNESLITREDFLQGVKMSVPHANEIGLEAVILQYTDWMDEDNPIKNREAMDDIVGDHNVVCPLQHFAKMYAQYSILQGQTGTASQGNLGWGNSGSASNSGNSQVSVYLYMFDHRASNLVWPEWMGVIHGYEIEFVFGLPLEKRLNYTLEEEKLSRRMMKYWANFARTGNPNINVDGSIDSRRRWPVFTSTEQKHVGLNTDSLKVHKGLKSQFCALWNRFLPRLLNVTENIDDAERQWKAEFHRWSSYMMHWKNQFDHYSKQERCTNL

[2] = biological target: Amyloid-beta precursor protein (Homo sapiens) (UniProt P05067); details: at 10 µM
Sequence of Amyloid-beta precursor protein (Homo sapiens) (P05067 whole entry): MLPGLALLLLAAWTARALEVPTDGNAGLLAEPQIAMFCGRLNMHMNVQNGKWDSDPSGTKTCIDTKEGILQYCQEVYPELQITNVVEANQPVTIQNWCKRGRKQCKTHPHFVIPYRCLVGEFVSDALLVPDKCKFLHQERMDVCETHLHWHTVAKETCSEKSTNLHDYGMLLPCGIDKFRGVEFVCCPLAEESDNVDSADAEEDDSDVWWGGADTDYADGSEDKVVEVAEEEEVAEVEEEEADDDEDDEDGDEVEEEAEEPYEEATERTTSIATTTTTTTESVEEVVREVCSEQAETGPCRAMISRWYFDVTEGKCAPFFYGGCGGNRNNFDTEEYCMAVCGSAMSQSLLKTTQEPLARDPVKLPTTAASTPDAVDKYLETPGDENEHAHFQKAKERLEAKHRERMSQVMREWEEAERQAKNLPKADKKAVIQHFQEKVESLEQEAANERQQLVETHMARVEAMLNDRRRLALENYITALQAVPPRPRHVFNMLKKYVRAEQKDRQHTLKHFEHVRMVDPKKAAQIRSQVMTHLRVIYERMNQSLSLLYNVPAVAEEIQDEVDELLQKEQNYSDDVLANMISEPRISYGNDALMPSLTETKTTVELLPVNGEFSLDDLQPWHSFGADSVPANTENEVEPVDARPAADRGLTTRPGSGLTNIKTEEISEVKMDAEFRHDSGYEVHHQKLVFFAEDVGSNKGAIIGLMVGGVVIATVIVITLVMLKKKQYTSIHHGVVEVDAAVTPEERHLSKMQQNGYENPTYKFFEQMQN
Description: Inhibition of amyloid beta (1 to 42) (unknown origin) aggregation at 10 uM expressed in Escherichia coli BL21 (DE3) incubated for 24 hrs by thioflavin T-based fluorometric assay relative to control

[3] = biological target: Beta-secretase 1 (Homo sapiens, UniProt P56817); details: 50 uM
Sequence of Beta-secretase 1 (P56817 whole entry): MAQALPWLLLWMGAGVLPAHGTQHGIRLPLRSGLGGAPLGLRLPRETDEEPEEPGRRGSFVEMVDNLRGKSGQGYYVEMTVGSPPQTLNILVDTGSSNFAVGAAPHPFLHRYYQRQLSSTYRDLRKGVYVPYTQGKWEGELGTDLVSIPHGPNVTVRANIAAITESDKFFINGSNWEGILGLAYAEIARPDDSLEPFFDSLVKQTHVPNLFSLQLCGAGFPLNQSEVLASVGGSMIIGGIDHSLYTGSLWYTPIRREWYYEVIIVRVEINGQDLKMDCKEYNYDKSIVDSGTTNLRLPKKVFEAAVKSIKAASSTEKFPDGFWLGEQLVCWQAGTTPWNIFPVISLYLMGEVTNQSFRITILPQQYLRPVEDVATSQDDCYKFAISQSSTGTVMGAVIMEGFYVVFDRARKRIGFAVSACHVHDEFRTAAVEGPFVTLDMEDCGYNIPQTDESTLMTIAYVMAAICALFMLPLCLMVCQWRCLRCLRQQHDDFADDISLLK

[4] = biological target: Cholinesterase (Equus caballus) (UniProt P81908); test: Inhibition of equine serum BuChE at 10 uM using butyrylthiocholine chloride as substrate pre-incubated for 5 mins followed by substrate addition and measured after 5 mins by Ellman's method relative to control
Sequence of Cholinesterase (Equus caballus) (P81908 whole entry): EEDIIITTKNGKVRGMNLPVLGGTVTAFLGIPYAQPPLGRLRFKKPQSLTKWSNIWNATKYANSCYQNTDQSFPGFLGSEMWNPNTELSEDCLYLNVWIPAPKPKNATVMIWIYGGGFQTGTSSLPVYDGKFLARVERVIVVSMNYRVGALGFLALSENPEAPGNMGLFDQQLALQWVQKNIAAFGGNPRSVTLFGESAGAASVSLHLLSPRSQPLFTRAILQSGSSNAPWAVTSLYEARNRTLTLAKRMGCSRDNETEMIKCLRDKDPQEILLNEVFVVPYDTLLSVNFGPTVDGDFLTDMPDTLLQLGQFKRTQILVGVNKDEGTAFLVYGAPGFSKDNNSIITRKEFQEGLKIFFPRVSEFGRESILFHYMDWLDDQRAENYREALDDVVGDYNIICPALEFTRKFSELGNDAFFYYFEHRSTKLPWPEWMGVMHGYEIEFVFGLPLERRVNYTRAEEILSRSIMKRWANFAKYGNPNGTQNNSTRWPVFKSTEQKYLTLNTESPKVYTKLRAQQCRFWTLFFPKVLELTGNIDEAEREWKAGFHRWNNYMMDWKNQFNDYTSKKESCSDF

[5] = biological target: Microtubule-associated protein tau (Homo sapiens) (UniProt P10636); test: Inhibition of tau aggregation (unknown origin) at 10 uM expressed in Escherichia coli BL21 (DE3) incubated for 24 hrs by thioflavin T-based fluorometric assay relative to control
Sequence of Microtubule-associated protein tau (Homo sapiens) (P10636 whole entry): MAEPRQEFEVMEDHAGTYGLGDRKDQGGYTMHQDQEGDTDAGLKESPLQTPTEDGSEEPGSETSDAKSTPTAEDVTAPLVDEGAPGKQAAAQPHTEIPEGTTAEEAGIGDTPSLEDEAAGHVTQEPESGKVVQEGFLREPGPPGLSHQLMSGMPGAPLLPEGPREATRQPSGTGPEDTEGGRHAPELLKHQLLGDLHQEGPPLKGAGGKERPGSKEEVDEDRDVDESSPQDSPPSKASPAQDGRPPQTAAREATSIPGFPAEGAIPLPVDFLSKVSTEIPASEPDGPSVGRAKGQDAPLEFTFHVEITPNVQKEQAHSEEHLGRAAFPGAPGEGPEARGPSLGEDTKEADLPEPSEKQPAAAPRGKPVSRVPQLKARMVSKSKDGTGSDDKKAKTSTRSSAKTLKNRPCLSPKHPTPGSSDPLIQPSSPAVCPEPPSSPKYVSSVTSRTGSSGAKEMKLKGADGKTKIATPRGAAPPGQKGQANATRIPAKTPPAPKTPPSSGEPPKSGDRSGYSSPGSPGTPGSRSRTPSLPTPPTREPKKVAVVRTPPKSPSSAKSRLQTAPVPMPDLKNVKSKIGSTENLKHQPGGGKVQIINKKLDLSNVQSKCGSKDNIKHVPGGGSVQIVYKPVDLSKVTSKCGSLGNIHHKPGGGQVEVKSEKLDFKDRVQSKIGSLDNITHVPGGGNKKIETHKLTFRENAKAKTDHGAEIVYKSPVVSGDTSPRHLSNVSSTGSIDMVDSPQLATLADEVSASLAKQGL

[6] = Antioxidant activity assessed as ABTS radical scavenging activity at 30 uM measured after 5 mins by spectrophotometric assay relative to control; format: functional
[7] = Antioxidant activity assessed as ABTS radical scavenging activity at 150 uM measured after 30 mins by spectrophotometric assay relative to control; format: functional
[8] = Antioxidant activity assessed as ABTS radical scavenging activity at 150 uM measured after 5 mins by spectrophotometric assay relative to control; format: functional
[9] = Antioxidant activity assessed as increase in total ferric ion reducing activity at 75 uM using FeCl3.H2O and TPTZ incubated for 60 mins by FRAP assay relative to control; format: functional; set-up: scale not given: the % may be the effect or the level left
[10] = Antioxidant activity assessed as ABTS radical scavenging activity at 75 uM measured after 60 mins by spectrophotometric assay relative to control; format: functional
[11] = Antioxidant activity assessed as ABTS radical scavenging activity at 75 uM measured after 30 mins by spectrophotometric assay relative to control; format: functional
[12] = Antioxidant activity assessed as ABTS radical scavenging activity at 150 uM measured after 60 mins by spectrophotometric assay relative to control; format: functional
[13] = Antioxidant activity assessed as increase in total ferric ion reducing activity at 150 uM using FeCl3.H2O and TPTZ incubated for 60 mins by FRAP assay relative to control; format: functional; set-up: scale not given: the % may be the effect or the level left
[14] = Antioxidant activity assessed as increase in total ferric ion reducing activity at 30 uM using FeCl3.H2O and TPTZ incubated for 60 mins by FRAP assay relative to control; format: functional; set-up: scale not given: the % may be the effect or the level left
[15] = Metal chelating activity assessed as Cu2+-compound complex formation at 50 uM after 30 mins by UV-Visible spectrophotometric method
[16] = Antioxidant activity assessed as ABTS radical scavenging activity at 75 uM measured after 5 mins by spectrophotometric assay relative to control; format: functional
[17] = Antioxidant activity assessed as ABTS radical scavenging activity at 30 uM measured after 30 mins by spectrophotometric assay relative to control; format: functional
[18] = Antioxidant activity assessed as increase in total ferric ion reducing activity at 150 uM using FeCl3.H2O and TPTZ incubated for 30 mins by FRAP assay relative to control; format: functional; set-up: scale not given: the % may be the effect or the level left
[19] = Antioxidant activity assessed as ABTS radical scavenging activity at 30 uM measured after 60 mins by spectrophotometric assay relative to control; format: functional
[20] = Antioxidant activity assessed as increase in total ferric ion reducing activity at 75 uM using FeCl3.H2O and TPTZ incubated for 5 mins by FRAP assay relative to control; format: functional; set-up: scale not given: the % may be the effect or the level left
[21] = Antioxidant activity assessed as increase in total ferric ion reducing activity at 150 uM using FeCl3.H2O and TPTZ incubated for 5 mins by FRAP assay relative to control; format: functional; set-up: scale not given: the % may be the effect or the level left
[22] = Antioxidant activity assessed as increase in total ferric ion reducing activity at 75 uM using FeCl3.H2O and TPTZ incubated for 30 mins by FRAP assay relative to control; format: functional; set-up: scale not given: the % may be the effect or the level left
[23] = Antioxidant activity assessed as increase in total ferric ion reducing activity at 30 uM using FeCl3.H2O and TPTZ incubated for 5 mins by FRAP assay relative to control; format: functional; set-up: scale not given: the % may be the effect or the level left
[24] = biological target: Cholinesterase (Equus caballus, UniProt P81908)
Sequence of Cholinesterase (P81908 whole entry): as the sequence (P81908 whole entry) above
Description: Inhibition of equine serum BuChE using butyrylthiocholine chloride as substrate pre-incubated for 5 mins followed by substrate addition and measured after 5 mins by Ellman's method

[25] = Antioxidant activity assessed as increase in total ferric ion reducing activity at 30 uM using FeCl3.H2O and TPTZ incubated for 30 mins by FRAP assay relative to control; format: functional; set-up: scale not given: the % may be the effect or the level left

Row | Structure (SMILES) | inhibition [1] [%] | inhibition [2] [%] | inhibition [3] [%] | inhibition [4] [%] | inhibition [5] [%] | Activity [6] [%] | Activity [7] [%] | Activity [8] [%] | Activity [9] [%] | Activity [10] [%] | Activity [11] [%] | Activity [12] [%] | Activity [13] [%] | Activity [14] [%] | Activity [16] [%] | Activity [17] [%] | Activity [18] [%] | Activity [19] [%] | Activity [20] [%] | Activity [21] [%] | also measured
1 | O=C(CN1CCCC(c2ccccc2)C1)NC1CCN(Cc2ccccc2)C1 (centres undefined) | 30.6 | 38.8 | 14.7 | 46 | 43.6 | – | – | – | – | – | – | – | – | – | – | – | – | – | – | – | –
2 | O=C(CN1CCN(CCc2ccccc2)CC1)NC1CCN(Cc2ccccc2)C1 (centres undefined) | < 10 | 15.2 | 48.6 | 15.3 | 61.3 | – | – | – | – | – | – | – | – | – | – | – | – | – | – | – | –
3 | O=C(CCN1CCC(CCc2ccccc2)CC1)NC1CCN(Cc2ccccc2)C1 (centres undefined) | 32.9 | 47.8 | < 10 | 16.3 | 57.9 | – | – | – | – | – | – | – | – | – | – | – | – | – | – | – | –
4 | O=C(CN1CCN(C(c2ccccc2)c2ccccc2)CC1)NC1CCN(Cc2ccccc2)C1 (centres undefined) | < 10 | 27.9 | 40 | < 10 | 61.2 | – | – | – | – | – | – | – | – | – | – | – | – | – | – | – | –
5 | c1ccc(CC2CCCN(CCNC3CCN(Cc4ccccc4)C3)C2)cc1 (centres undefined) | 29.9 | – | 24.1 | – | – | 21 | 80 | 49 | 30 | 53 | 40 | 94 | 35 | 10 | 18 | 14 | 32 | 5 | 24 | 30 | Activity [15]: Active; Activity [22]: 28%; Activity [23]: 7%; IC50 [24]: 1940 nM; Activity [25]: 10%
6 | O=C(CN1CCCC(CCc2ccccc2)C1)NC1CCN(Cc2ccccc2)C1 (centres undefined) | 26.7 | – | 28.8 | – | – | – | – | – | – | – | – | – | – | – | – | – | – | – | – | – | IC50 [24]: 10300 nM
7 | c1ccc(CCC2CCN(CCCNC3CCN(Cc4ccccc4)C3)CC2)cc1 (centres undefined) | 34.9 | 36.3 | 17 | 25.6 | 52.8 | – | – | – | – | – | – | – | – | – | – | – | – | – | – | – | –
8 | c1ccc(CN2CCC(NCCN3CCC(c4ccccc4)CC3)C2)cc1 (centres undefined) | < 10 | 37.4 | 11.8 | 45.5 | 68.1 | 13 | 75 | 37 | 6 | 48 | 39 | 84 | 8 | 3 | 15 | 24 | 6 | 31 | 0 | 10 | Activity [15]: Active; Activity [22]: 4%; Activity [23]: 2%; Activity [25]: 3%
9 | O=C(CN1CCC(c2ccccc2)CC1)NC1CCN(Cc2ccccc2)C1 (centres undefined) | < 10 | 43.7 | 48.4 | 33.3 | 53.6 | – | – | – | – | – | – | – | – | – | – | – | – | – | – | – | Activity [15]: Active
10 | c1ccc(CCN2CCN(CCNC3CCN(Cc4ccccc4)C3)CC2)cc1 (centres undefined) | < 10 | 34.7 | 33.5 | 25.7 | 59.6 | 14 | 73 | 46 | 18 | 48 | 41 | 82 | 43 | 10 | 22 | 28 | 40 | 34 | 5 | 39 | Activity [22]: 15%; Activity [23]: 8%; Activity [25]: 9%
11 | O=C(CN1CCN(c2ccccc2)CC1)NC1CCN(Cc2ccccc2)C1 (centres undefined) | < 10 | 34.5 | 43.7 | < 10 | 74.8 | 23 | 66 | 36 | 60 | 59 | 49 | 76 | 72 | 49 | 23 | 50 | 58 | 62 | 14 | 44 | Activity [22]: 44%; Activity [23]: 10%; Activity [25]: 33%
12 | O=C(CN1CCCC(Cc2ccccc2)C1)NC1CCN(Cc2ccccc2)C1 (centres undefined) | 27.6 | 45.1 | < 10 | – | 54.2 | – | – | – | – | – | – | – | – | – | – | – | – | – | – | – | IC50 [24]: 7000 nM
13 | c1ccc(CN2CCC(NCCN3CCN(c4ccccc4)CC3)C2)cc1 (centres undefined) | < 10 | 38.5 | 40.7 | 23.9 | 79.5 | 42 | 98 | 76 | 68 | 85 | 78 | 99 | 79 | 55 | 50 | 71 | 68 | 80 | 23 | 55 | Activity [15]: Active; Activity [22]: 54%; Activity [23]: 15%; Activity [25]: 39%
14 | O=C(CN1CCN(Cc2ccccc2)CC1)NC1CCN(Cc2ccccc2)C1 (centres undefined) | < 10 | 37.4 | 40.7 | 17.8 | 66.7 | – | – | – | – | – | – | – | – | – | – | – | – | – | – | – | –
15 | O=C(CN1CCC(CCc2ccccc2)CC1)NC1CCN(Cc2ccccc2)C1 (centres undefined) | < 10 | 48.3 | 50.5 | 33.1 | 53.5 | – | – | – | – | – | – | – | – | – | – | – | – | – | – | – | –
16 | c1ccc(CC2CCN(CCNC3CCN(Cc4ccccc4)C3)CC2)cc1 (centres undefined) | 21.2 | 36.6 | < 10 | – | 61 | 9 | 43 | 21 | 13 | 27 | 21 | 55 | 22 | 3 | 11 | 12 | 20 | 17 | 6 | 13 | Activity [15]: Active; Activity [22]: 11%; Activity [23]: 1%; IC50 [24]: 620 nM; Activity [25]: 2%
17 | c1ccc(CN2CCC(NCCN3CCCC(c4ccccc4)C3)C2)cc1 (centres undefined) | 40.8 | – | 25 | – | – | 14 | 85 | 54 | 25 | 59 | 47 | 96 | 39 | 15 | 24 | 27 | 36 | 38 | 15 | 34 | Activity [15]: Active; Activity [22]: 22%; Activity [23]: 11%; IC50 [24]: 2390 nM; Activity [25]: 13%
18 | Cc1c(C)c2c(c(C)c1O)CCC(C)(C(=O)O)O2 (centres undefined) | – | – | – | – | – | 100 | 100 | 100 | 100 | 100 | 100 | 100 | 100 | 100 | 100 | 100 | 100 | 100 | 100 | 100 | Activity [22]: 100%; Activity [23]: 100%; Activity [25]: 100%
